Data on four molecules can be found in ChEMBL document CHEMBL3217645, “Online parallel fragment screening and rapid hit exploration for nicotinic acetylcholine receptors” (Medchemcomm, 2011).

Experiment [1] is described as follows: Selectivity ratio of Ki for Lymnaea stagnalis AChBP over Ki for Aplysia californica AChBP.
Experiment [2] has as its target Neuronal acetylcholine receptor; alpha4/beta2 (Homo sapiens, UniProt P17787+P43681). Kind of experiment: Displacement of [3H]epibatadine from human alpha4beta2 nAChR expressed in HEK293T cells after 1.5 hrs by scintillation counting analysis. It is filed as cell-based, HEK-293T. (Loss of bound radioactivity is the signal in a displacement assay; it reports binding, not function.)

Experiment [3] can be described thus: Displacement of [3H]epibatadine from Aplysia californica recombinant C-terminal His-tagged AChBP expressed in baculovirus infected SF9 cells after 1.5 hrs by scintillation counting analysis.
The target of experiment [4] is Acetylcholine-binding protein (Lymnaea stagnalis, UniProt P58154). Kind of experiment: Displacement of [3H]epibatadine from Lymnaea stagnalis recombinant C-terminal His-tagged AChBP expressed in baculovirus infected SF9 cells after 1.5 hrs by scintillation counting analysis.
Acetylcholine-binding protein, sequence (P58154 whole entry): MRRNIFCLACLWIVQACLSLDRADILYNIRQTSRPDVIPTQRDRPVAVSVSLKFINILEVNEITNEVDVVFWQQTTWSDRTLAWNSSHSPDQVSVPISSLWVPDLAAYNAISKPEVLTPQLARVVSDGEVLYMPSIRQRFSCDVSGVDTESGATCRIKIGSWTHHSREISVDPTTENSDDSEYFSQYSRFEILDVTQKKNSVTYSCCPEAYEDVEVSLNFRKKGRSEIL
In experiment [5] the target is Neuronal acetylcholine receptor subunit alpha-7 (Homo sapiens, UniProt P36544). In words: Displacement of [3H]epibatadine from human alpha7 nAChR expressed in human SH-SY5Y cells after 1.5 hrs by scintillation counting analysis. The class given is cell-based.
Neuronal acetylcholine receptor subunit alpha-7, sequence (P36544 whole entry): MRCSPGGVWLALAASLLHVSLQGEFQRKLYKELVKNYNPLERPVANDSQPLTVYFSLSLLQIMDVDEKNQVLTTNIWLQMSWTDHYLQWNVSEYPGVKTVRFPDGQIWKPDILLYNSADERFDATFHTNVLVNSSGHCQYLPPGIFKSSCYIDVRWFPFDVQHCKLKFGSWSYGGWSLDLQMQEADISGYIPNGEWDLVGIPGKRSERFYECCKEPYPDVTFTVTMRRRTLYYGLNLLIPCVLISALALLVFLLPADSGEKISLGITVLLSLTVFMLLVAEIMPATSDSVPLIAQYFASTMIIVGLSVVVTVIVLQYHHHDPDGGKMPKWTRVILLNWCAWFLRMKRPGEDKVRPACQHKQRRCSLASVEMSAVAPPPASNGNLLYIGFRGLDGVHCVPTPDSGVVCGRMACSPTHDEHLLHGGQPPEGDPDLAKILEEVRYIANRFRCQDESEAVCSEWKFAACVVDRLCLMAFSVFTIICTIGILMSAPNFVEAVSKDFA
Experiment [6] is described as follows: Selectivity ratio of Ki for Lymnaea stagnalis recombinant C-terminal His-tagged AChBP to Ki for human alpha7 nAChR.

Neuronal acetylcholine receptor; alpha4/beta2, sequence (P17787 whole entry): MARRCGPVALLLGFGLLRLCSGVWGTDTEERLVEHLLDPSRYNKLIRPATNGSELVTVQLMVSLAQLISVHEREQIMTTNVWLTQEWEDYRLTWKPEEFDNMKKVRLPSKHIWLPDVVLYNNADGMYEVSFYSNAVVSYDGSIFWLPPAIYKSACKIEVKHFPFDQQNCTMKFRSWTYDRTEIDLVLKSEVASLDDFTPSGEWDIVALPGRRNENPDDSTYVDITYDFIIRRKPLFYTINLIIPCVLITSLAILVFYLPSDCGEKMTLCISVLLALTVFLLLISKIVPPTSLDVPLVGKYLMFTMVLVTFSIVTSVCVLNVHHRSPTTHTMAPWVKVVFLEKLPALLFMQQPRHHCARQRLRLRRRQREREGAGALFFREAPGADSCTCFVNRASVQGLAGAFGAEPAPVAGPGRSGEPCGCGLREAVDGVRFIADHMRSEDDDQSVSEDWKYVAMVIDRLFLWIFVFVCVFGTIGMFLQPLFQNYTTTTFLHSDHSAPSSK
Neuronal acetylcholine receptor; alpha4/beta2, sequence (P43681 whole entry): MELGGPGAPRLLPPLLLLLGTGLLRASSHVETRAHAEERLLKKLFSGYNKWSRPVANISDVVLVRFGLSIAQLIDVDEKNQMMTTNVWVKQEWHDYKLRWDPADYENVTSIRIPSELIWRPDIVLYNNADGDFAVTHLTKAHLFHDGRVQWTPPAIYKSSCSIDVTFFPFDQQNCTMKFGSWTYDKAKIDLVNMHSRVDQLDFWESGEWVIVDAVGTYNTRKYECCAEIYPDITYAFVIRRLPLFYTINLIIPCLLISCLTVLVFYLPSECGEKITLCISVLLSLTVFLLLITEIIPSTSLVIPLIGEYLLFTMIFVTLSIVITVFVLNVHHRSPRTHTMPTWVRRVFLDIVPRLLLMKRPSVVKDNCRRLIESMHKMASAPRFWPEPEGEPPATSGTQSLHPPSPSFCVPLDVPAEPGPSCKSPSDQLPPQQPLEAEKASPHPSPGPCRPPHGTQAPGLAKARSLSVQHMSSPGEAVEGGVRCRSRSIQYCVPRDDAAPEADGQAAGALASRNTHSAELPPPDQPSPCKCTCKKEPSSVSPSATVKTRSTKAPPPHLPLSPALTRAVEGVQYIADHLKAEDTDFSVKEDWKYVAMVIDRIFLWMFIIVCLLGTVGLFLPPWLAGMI

For `C[C@H](NC(=O)[C@H](CS)NC(=O)[C@H](CCCNC(=N)N)NC(=O)[C@@H]1CCCN1C(=O)[C@H](CC(=O)O)NC(=O)[C@H](CO)NC(=O)[C@H](CS)NC(=O)[C@H](CS)NC(=O)CN)C(=O)N[C@@H](Cc1c[nH]c2ccccc12)C(=O)N[C@@H](CCCNC(=N)N)C(=O)N[C@@H](CS)C(N)=O`, the Ratio Ki in experiment [1] is > 6000.

Consider `CC(C)N1CCC(=NO)CC1`, for which the Ki in experiment [2] was > 100 µM; in experiment [4], 10.5 µM; in experiment [5], 10.2 µM. Moreover, the Ratio Ki in experiment [1] is > 9.5. Besides, the pKi in experiment [3] is < 4.

For the molecule `Fc1ccc(F)c(NN=C2CCN(CCc3ccccc3)CC2)c1`, the Ki was 0.0891 µM in experiment [4] and > 100 µM in experiment [5].

Consider `CN1[C@@H]2CC[C@H]1C/C(=N\Nc1ccccc1Cl)C2`, for which, in experiment [6], the Ratio Ki came to 5. The Ki in experiment [4] was 0.204 µM; in experiment [5], 2.19 µM.

A word on the Ki: it is a dissociation constant, usually derived from enzyme kinetics or from competition with a known ligand. For orientation: pKi means −log10 of the Ki, conventionally taken in molar units.
